Values of other authors, collected in patent US11730740B2, “Laureth-4 containing topical formulations” (ARCUTIS BIOTHERAPEUTICS, INC., priority 2020, dated 2023).

How the values were obtained:
[1] = 10% adjuvant in propylene glycol; infinite dosing 278 μl/cm^2; PG alone control 1.6±0.4
[2] = molecular target: JAK 1 (Homo sapiens, UniProt P23458); settings: statement in words
[3] = 10% w/w surfactant in white petrolatum with 10% salicylic acid and 10% DMSO; 5.0 grams on 6.4×12.7 cm^2 skin; 8 hr

JAK 1, sequence (P23458 whole entry, species assumed): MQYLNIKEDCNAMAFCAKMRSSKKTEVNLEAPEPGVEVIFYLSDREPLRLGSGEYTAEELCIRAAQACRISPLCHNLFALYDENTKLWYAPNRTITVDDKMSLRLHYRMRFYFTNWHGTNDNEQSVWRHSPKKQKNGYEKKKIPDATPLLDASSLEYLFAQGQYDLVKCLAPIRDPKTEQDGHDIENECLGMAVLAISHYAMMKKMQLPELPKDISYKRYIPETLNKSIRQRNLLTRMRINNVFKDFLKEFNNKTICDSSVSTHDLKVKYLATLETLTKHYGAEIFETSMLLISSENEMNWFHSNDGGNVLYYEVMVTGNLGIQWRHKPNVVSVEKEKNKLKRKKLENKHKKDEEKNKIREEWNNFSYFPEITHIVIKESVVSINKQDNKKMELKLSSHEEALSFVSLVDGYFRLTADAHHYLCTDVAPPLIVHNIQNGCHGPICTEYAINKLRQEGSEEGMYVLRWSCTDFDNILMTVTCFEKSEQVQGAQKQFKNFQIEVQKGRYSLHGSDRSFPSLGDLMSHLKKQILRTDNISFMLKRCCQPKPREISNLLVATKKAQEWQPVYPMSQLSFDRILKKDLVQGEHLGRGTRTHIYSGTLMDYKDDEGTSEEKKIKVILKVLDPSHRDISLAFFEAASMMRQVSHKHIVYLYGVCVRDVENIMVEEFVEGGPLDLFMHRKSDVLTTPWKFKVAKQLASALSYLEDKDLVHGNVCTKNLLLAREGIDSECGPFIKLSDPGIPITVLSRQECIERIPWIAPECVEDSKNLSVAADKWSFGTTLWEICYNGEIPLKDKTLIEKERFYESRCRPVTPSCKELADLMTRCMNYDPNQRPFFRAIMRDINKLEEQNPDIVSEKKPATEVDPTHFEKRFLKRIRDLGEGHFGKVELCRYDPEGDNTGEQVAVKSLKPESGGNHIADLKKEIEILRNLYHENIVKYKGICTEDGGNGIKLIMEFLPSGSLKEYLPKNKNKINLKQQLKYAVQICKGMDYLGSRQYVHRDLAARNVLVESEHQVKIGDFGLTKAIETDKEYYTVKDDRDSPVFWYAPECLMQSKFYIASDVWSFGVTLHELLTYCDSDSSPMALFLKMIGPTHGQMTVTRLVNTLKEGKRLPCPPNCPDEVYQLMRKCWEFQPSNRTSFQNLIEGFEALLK

| Compound | naloxone flux [1] [μg/cm^2-hr] | further results |
| --- | --- | --- |
| CCC[C@@H]1C[C@@H](C(=O)N[C@@H]([C@H]2O[C@H](SC)[C@H](OP(=O)(O)O)[C@@H](O)[C@H]2O)[C@H](C)Cl)N(C)C1 [Clindamycin phosphate] | – | solubility in water (without the addition of laureth-4): readily soluble |
| propylene glycol laurate | 43.8±5.5 | – |
| CC/C=C\C/C=C\C/C=C\CCCCCCCCO [linolenyl alcohol] | 116.3 | – |
| CCCCCCCCCCCC(=O)O [lauric acid] | 235.2 | – |
| COc1nsc(NC(=O)N2C[C@H]3C[C@H](N(C)c4ncnc5[nH]ccc45)C[C@H]3C2)n1 [SHR0302, (3 aR,5 S,6aS)—N-(3-methoxyl-1,2,4-thiadiazol-5-yl)-5-(methyl(7H-pyrrolo[2,3-d]pyrimidin-4-yl)amino)hexahydrocyclopenta[c]pyrrole-2(1H)-carboxamide] | – | inhibition of JAK 1 [2]: potent; selectivity for JAK1 over JAK2 [2]: high |
| sorbitan trioleate | – | percutaneous absorption of salicylic acid [3]: increased significantly |
| sorbitan monopalmitate | – | percutaneous absorption of salicylic acid [3]: increased significantly |
| polyoxyethylene 2 oleyl ether | – | percutaneous absorption of salicylic acid [3]: increased significantly |
| CCCCCCCCCC(=O)O [capric acid] | 187.9±67.5 | – |
| CC1=C(/C=C/C(C)=C/C=C/C(C)=C/C(=O)O)C(C)(C)CCC1 [tretinoin] | – | solubility of tretinoin in VELTIN Gel (with laureth-4 (3%) and propylene glycol): 0.025% |
| CCCCCCCCCCCCO [lauryl alcohol] | 45.8 | – |
| CCCCCCCCCCCCOCCOCCOCCOCCO [laureth-4, tetraethylene glycol monododecyl ether] | 34.5±8.3 | percutaneous absorption of salicylic acid [3]: increased significantly |

Now from value to compound, other results behind:

| naloxone flux [1] [μg/cm^2-hr] | Compound | further results |
| --- | --- | --- |
| 201.9±65.4 | CCCCCCCCC(=O)O [pelargonic acid] | – |
| 103.0 | CC/C=C\C/C=C\C/C=C\CCCCCCCC(=O)O [linolenic acid 18:2, linolenic acid] | – |
